Tests used:
Format in all cases: cell-based
[1] = tested on: 786-0; assay: Growth suppression activity in human tumor cell line; conditions: 72 h; Human renal cancer, 786-0, 3 days
Procedure: (§1) Human tumor cell lines different in type were suspended in mediums, seeded in individual wells of a multi-well plate and cultured. On the day after initiation of culture, serially diluted solutions of a compound were added. Culture was carried out for further 3 days. Cells were counted by a CellTiter-Glo (manufactured by Promega KK) in accordance with the protocol recommended by Promega KK. Cell viability was calculated in accordance with the equation shown below and the concentration (IC50 (μM)) of the compound at which 50% of cell growth is inhibited was obtained.
(§2) T: Intensity of light emitted from a well containing a compound
(§3) C: Intensity of light emitted from a well containing no compound

[2] = tested on: BCP1; assay: as above; conditions: BCP-1, 72 h; Human hematopoietic organ tumor, BCP1, 3 days
Procedure: as §1, §2, §3

[3] = tested on: BXPC3; assay: as above; conditions: BXPC-3, 72 h; Human pancreatic cancer, BXPC3, 3 days
Procedure: as §1, §2, §3

[4] = tested on: DLD1; assay: as above; conditions: DLD-1, 72 h; Human colorectal cancer, DLD1, 3 days
Procedure: as §1, §2, §3

[5] = tested on: DMS273; assay: as above; conditions: DMS-273, 72 h; Human lung cancer, DMS273, 3 days
Procedure: as §1, §2, §3

[6] = tested on: DOK; assay: as above; conditions: 72 h, Human head and neck cancer, 3 days
Procedure: as §1, §2, §3

[7] = tested on: EBC1; assay: as above; conditions: EBC-1, 72 h; Human lung cancer, EBC1, 3 days
Procedure: as §1, §2, §3

[8] = tested on: H1703; assay: as above; conditions: NCI-H1703, 72 h; Human lung cancer, H1703, 3 days
Procedure: as §1, §2, §3

[9] = tested on: H1975; assay: as above; conditions: NCI-H1975, 72 h; Human lung cancer, H1975, 3 days
Procedure: as §1, §2, §3

[10] = tested on: H2081; assay: as above; conditions: NCI-H2081, 72 h; Human lung cancer, H2081, 3 days
Procedure: as §1, §2, §3

[11] = tested on: H2126; assay: as above; conditions: NCI-H2126, 72 h; Human lung cancer, H2126, 3 days
Procedure: as §1, §2, §3

[12] = tested on: H526; assay: as above; conditions: NCI-H526, 72 h; Human lung cancer, H526, 3 days
Procedure: as §1, §2, §3

[13] = tested on: HT1197; assay: as above; conditions: 72 h; human bladder cancer, HT1197, 3 days
Procedure: as §1, §2, §3

[14] = tested on: HT1376; assay: as above; conditions: HT-1376, 72 h; human bladder cancer, HT1376, 3 days
Procedure: as §1, §2, §3

[15] = tested on: MIAPACA2; assay: as above; conditions: MIA PaCa-2, 72 h; Human pancreatic cancer, MIAPACA2, 3 days
Procedure: as §1, §2, §3

[16] = tested on: MKN45; assay: as above; conditions: MKN-45, 72 h; Human stomach cancer, MKN45, 3 days
Procedure: as §1, §2, §3

[17] = tested on: MOLT4; assay: as above; conditions: MOLT-4, 72 h; Human hematopoietic organ tumor, MOLT4, 3 days
Procedure: as §1, §2, §3

[18] = tested on: MV-4-11; assay: as above; conditions: MV4-11, 72 h; Human hematopoietic organ tumor, MV-4-11, 3 days
Procedure: as §1, §2, §3

[19] = tested on: SDM103T2; assay: as above; conditions: 72 h; Human lung cancer, SDM103T2, 3 days
Procedure: as §1, §2, §3

[20] = tested on: A431; assay: Growth suppression activity to human tumor cell line (Evaluation 2); conditions: Human epidermoid carcinoma, A431, 3 days
Procedure: as §1, with “(nM))” for “(μM))”
as §2, §3

[21] = tested on: A549; assay: as above; conditions: A549, 72 h, Human lung cancer, A549, 3 days
Procedure: as §1, with “(nM))” for “(μM))”
as §2, §3

[22] = tested on: H1650; assay: as above; conditions: NCI-H1650, 72 h, Human lung cancer, H1650, 3 days
Procedure: as §1, with “(nM))” for “(μM))”
as §2, §3

[23] = tested on: H2122; assay: as above; conditions: NCI-H2122, 72 h, Human lung cancer, H2122, 3 days
Procedure: as §1, with “(nM))” for “(μM))”
as §2, §3

[24] = tested on: H358; assay: as above; conditions: NCI-H358, 72 h, Human lung cancer, H358, 3 days
Procedure: as §1, with “(nM))” for “(μM))”
as §2, §3

[25] = tested on: HCC827; assay: as above; conditions: Human lung cancer, HCC827, 3 days
Procedure: as §1, with “(nM))” for “(μM))”
as §2, §3

[26] = tested on: RKO; assay: as above; conditions: 72 h, Human colorectal cancer, 3 days
Procedure: as §1, with “(nM))” for “(μM))”
as §2, §3

[27] = tested on: SK-BR-3; assay: as above; conditions: Human breast cancer, SK-BR-3, 3 days
Procedure: as §1, with “(nM))” for “(μM))”
as §2, §3

Nc1ncnc2c1c(Br)cn2[C@@H]1O[C@H](CO)[C@@H](O)[C@@H]1F [Comparative Example 1, (2R,3R,4S,5R)-5-(4-amino-5-bromo-7H-pyrrolo[2,3-d]pyrimidin-7-yl)-4-fluoro-2-(hydroxymethyl) tetrahydrofuran-3-ol]
IC50 [1]: 220 nM
IC50 [2]: 110 nM
IC50 [3]: 270 nM
IC50 [4]: 50 nM
IC50 [5]: 400 nM
IC50 [6]: 110 nM
IC50 [7]: 60 nM
IC50 [8]: 20 nM
IC50 [9]: 70 nM
IC50 [10]: 90 nM
IC50 [11]: 110 nM
IC50 [12]: 170 nM
IC50 [13]: 130 nM
IC50 [14]: 60 nM
IC50 [15]: 70 nM
IC50 [16]: 210 nM
IC50 [17]: 60 nM
IC50 [18]: 30 nM
IC50 [19]: 580 nM
IC50 ([20]; Homo sapiens, A-431, 72 h): 32 nM
IC50 [20]: 18 nM
IC50 [21]: 14 nM
IC50 [22]: 8 nM
IC50 [23]: 9 nM
IC50 [24]: 52 nM
IC50 ([25]; Homo sapiens, HCC827, 72 h): 228 nM
IC50 [25]: 176 nM
IC50 [26]: 31 nM
IC50 ([27]; Homo sapiens, SK-BR-3, 72 h): 26 nM
IC50 [27]: 23 nM

Source: patent US20220233566A1, “NOVEL CARBONATE COMPOUND HAVING PYRROLOPYRIMIDINE SKELETON OR PHARMACEUTICALLY ACCEPTABLE SALT THEREOF” (TAIHO PHARMACEUTICAL CO., LTD., priority 2019, published 2022)
